Laboratory results as given in patent US10377747B2, “2-arylamino pyridine, pyrimidine or triazine derivatives, preparation method and use thereof” (Wuxi Shuangliang Biotechnology Co., Ltd., priority 2015, dated 2019).
Like-named read-outs stand apart in the source and are kept apart here.

What was measured:
[1] = test system: A431 (human epidermal cancer cells, EGFR wild type); test: Tumor cell proliferation and growth inhibition analysis (Cell Titer-Glo, 72 h), A431; assay type: cell-based; settings: A-431, 72 h exposure
Excerpt: (§1) […] cell proliferation assay is described as follows.
(§2) Tumor cell proliferation and growth inhibition analysis: H1975 (non-small-cell lung cancer cells. EGFR L858K/T790M) and A431 (human epidermal cancer cells, EGFR wild type) cells were commercially available from the ATCC cell bank. […] The growth medium for A431 cells was DMEM (GIBCO, 11995-065), 10% fetal bovine serum. The influence exerted by the compounds on the proliferation activity of tumor cells was detected by Cell Titer-Glo assay. Tumor cells were exposed to the treatment conditions for 72 h, and the cell density used in each experiment for each cell line was adjusted according to the 72 h cell growth curve. 10 concentration gradients and three-fold dilutions (0.5 nM-10 μM) were set for compounds to be tested, and 3 parallel controls were used for each concentration value.
(§3) Trypsin was used for digesting cells in the logrithmic growth phase to prepare cell suspension, which was counted by a Roche counter and appropriately diluted with complete medium to a final cell concentration of 1˜2×10^3 cell/mL. 384-well plates were seeded with cells, and 22.6 μL were seeded for each well. 3 parallels were set. The plates were incubated in an incubator with 5% CO2 at 37° C. overnight. The compounds were dissolved in DMSO to prepare […] mother liquor. […] 2 μL of compound solution was added into 18 μL of culture medium, and fully mixed. Then 2 μL of mixed solution of compound and culture medium was added into 18 μL of culture medium, and fully mixed. 2.4 μL of mixtures were added into a 384-well plates. […] After cultivation for 72 h, 24 μL of Cell Titer-Glo reagent was added. The contents were mixed on an orbital shaker for 2 min to induce cell lysis. The 384-well plates were incubated at room temperature for 10 min to stabilize the […] signal value. Data was read by Infinite® M1000 PRO (TECAN), and calculated with GraphPad Prism version 5.0. GI50 value was obtained by adjustment using a non-linear regression model of dose response curves.

[2] = test system: H1975 (non-small-cell lung cancer cells. EGFR L858K/T790M); test: Tumor cell proliferation and growth inhibition analysis (Cell Titer-Glo, 72 h), H1975; assay type: cell-based; settings: Homo sapiens
Excerpt: as §1, §2, §3

[3] = NCI-H1975, H1975 cells, 72 h exposure, Cell Titer-Glo, read-out: H1975 GI50

GI50 [1] [nM] | GI50 [2, 3] [nM] | Compound | GI50 ([2]; NCI-H1975, 72 h, read-out: H1975 GI50 (nM)) [nM]
1320 | 441 | C=CC(=O)Nc1cc(Nc2ncnc(-c3cccc4ccn(C)c34)n2)c(OC)cc1N(C)CCN(C)C [Example 37, N-(2-((2-(dimethylamino)ethyl)(methyl)amino)-4-methoxy-5-((4-(1-methyl-1H-indol-7-yl)-1,3,5-triazin-2-yl)amino)phenyl)acrylamide] | 
267 | 19.1 | C=CC(=O)Nc1cc(Nc2cc(-c3cnn4cccnc34)ccn2)c(OC)cc1N(C)CCN(C)C [Example 43, N-(2-((2-(dimethylamino)ethyl)(methyl)amino)-4-methoxy-5-((4-(pyrazolo[1,5-a]pyrimidin-3-yl)pyridin-2-yl)amino)phenyl)acrylamide] | 
> 1000 | 24.2 | C=CC(=O)Nc1cc(Nc2nccc(-c3noc4ccccc34)n2)c(OC(F)F)cc1N1CCC(N(C)C)CC1 [Example 9, N-(5-((4-(benzo[d]isoxazol-3-yl)pyrimidin-2-yl)amino)-4-(difluoromethoxy)-2-(4-(dimethylamino)piperidin-1-yl)phenyl)acrylamide] | 
638 | 104 | C=CC(=O)Nc1cc(Nc2cc(-c3cnc4ccccn34)ccn2)c(OC)cc1N(C)CCN(C)C [Example 44, N-(2-((2-(dimethylamino)ethyl)(methyl)amino)-5-((4-(imidazo[1,2-a]pyridin-3-yl)pyridin-2-yl)amino)-4-methoxyphenyl)acrylamide] | 
264 | 16.3 | C=CC(=O)Nc1cc(Nc2cc(-c3nn(C)c4cccnc34)ccn2)c(OC)cc1N(C)CCN(C)C [Example 42, N-(2-((2-(dimethylamino)ethyl)(methyl)amino)-4-methoxy-5-((4-(1-methyl-1H-pyrazolo[4,3-b]pyridin-3-yl)pyridin-2-yl)amino)phenyl)acrylamide] | 
798 | 7.6 | C=CC(=O)Nc1cc(Nc2cc(-n3nc(C)c4ccccc43)ccn2)c(OC)cc1N(C)CCN(C)C [Example 45, N-(2-((2-(dimethylamino)ethyl)(methyl)amino)-4-methoxy-5-((4-(3-methyl-1H-indazol-1-yl)pyridin-2-yl)amino)phenyl)acrylamide] | 
943 | 21.5 | C=CC(=O)Nc1cc(Nc2nccc(-c3cn(C)c4cc(C)sc34)n2)c(OC)cc1N(C)CCN(C)C [Example 30] | 
5300 | 261 | C=CC(=O)Nc1cc(Nc2nccc(-c3nn(C)c4ccsc34)n2)c(OC(F)F)cc1N1CCC(N(C)C)CC1 [Example 28] | 
89.1 | 4 | C=CC(=O)Nc1cc(Nc2nccc(-c3noc4ccccc34)n2)c(OC(F)F)cc1N(C)CCN(C)C [Example 6, N-(5-((4-(benzo[d]isoxazol-3-yl)pyrimidin-2-yl)amino)-4-(difluoromethoxy)-2-((2-(dimethylamino)ethyl)(methyl)amino)phenyl)acrylamide] | 
100 | 9.8 | C=CC(=O)Nc1cc(Nc2ncnc(-c3cccc4cc[nH]c34)n2)c(OC(F)F)cc1N(C)CCN(C)C [Example 33, N-(5-((4-(1H-indol-7-yl)-1,3,5-triazin-2-yl)amino)-4-(difluoromethoxy)-2-((2-(dimethylamino)ethyl)(methyl)amino)phenyl)acrylamide] | 
319 | 35.9 | C=CC(=O)Nc1cc(Nc2nccc(-c3cn(C)c4cccnc34)n2)c(OC(F)F)cc1N1CCC(N(C)C)CC1 [Example 21, N-(4-(difluoromethoxy)-2-(4-(dimethylamino)piperidin-1-yl)-5-((4-(1-methyl-1H-pyrrolo[3,2-b]pyridin-3-yl)pyrimidin-2-yl)amino)phenyl)acrylamide] | 
198 | 28.9 | C=CC(=O)Nc1cc(Nc2cc(-c3cn(C)c4ncccc34)ccn2)c(OC)cc1N(C)CCN(C)C [Example 40, N-(2-((2-(dimethylamino)ethyl)(methyl)amino)-4-methoxy-5-((4-(1-methyl-1H-pyrrolo[2,3-b]pyridin-3-yl)pyridin-2-yl)amino)phenyl)acrylamide] | 
2100 | 2880 | C=CC(=O)Nc1cc(Nc2nccc(-c3cn(C)c4cccnc34)n2)c(OC)cc1N1CCC[C@H]1CN(C)C [Example 16] | 
2540 | 1100 | C=CC(=O)Nc1cc(Nc2nccc(-c3nn(C)c4ccsc34)n2)c(OC(F)F)cc1N1CC(N(C)C)C1 [Example 27, N-(4-(difluoromethoxy)-2-(3-(dimethylamino)azetidin-1-yl)-5-((4-(1-methyl-1H-thieno[3,2-c]pyrazol-3-yl)pyrimidin-2-yl)amino)phenyl)acrylamide] | 
 |  | C=CC(=O)Nc1cc(Nc2nccc(-c3cn(C)c4ccccc34)n2)c(OC)cc1N(C)CCN(C)C [AZD9291, reference compound] | 2.8
~110 | 7.3 | C=CC(=O)Nc1cc(Nc2nccc(-c3noc4ccccc34)n2)c(OC)cc1N(C)CCN(C)C [Example 1] | 
1240 | 82.4 | C=CC(=O)Nc1cc(Nc2nccc(-c3noc4ccccc34)n2)c(OC)cc1N1CCC(N(C)C)CC1 [Example 3, N-(5-((4-(benzo[d]isoxazol-3-yl)pyrimidin-2-yl)amino)-2-(4-(dimethylamino)piperidin-1-yl)-4-methoxyphenyl)acrylamide] | 
85.8 | 6.5 | C=CC(=O)Nc1cc(Nc2nccc(-c3nn(C)c4ccsc34)n2)c(OC(F)F)cc1N(C)CCN(C)C [Example 25] | 
~1720 | 49 | C=CC(=O)Nc1cc(Nc2nccc(-c3noc4ccccc34)n2)c(OC(F)F)cc1N1CCN(C)CC1 [Example 7, N-(5-((4-(benzo[d]isoxazol-3-yl)pyrimidin-2-yl)amino)-4-(difluoromethoxy)-2-(4-methylpiperazin-1-yl)phenyl)acrylamide] | 
2570 | 462 | C=CC(=O)Nc1cc(Nc2ncnc(-c3cccc4cc[nH]c34)n2)c(OC)cc1N1CCN(C)CC1 [Example 34, N-(5-((4-(1H-indol-7-yl)-1,3,5-triazin-2-yl)amino)-4-methoxy-2-(4-methylpiperazin-1-yl)phenyl)acrylamide] | 
> 1000 | > 1000 | C=CC(=O)Nc1cc(Nc2nccc(-c3cn(C)c4cccnc34)n2)c(OC(F)F)cc1N1CC(N(C)C)C1 [Example 20, N-(4-(difluoromethoxy)-2-(3-(dimethylamino)azetidin-1-yl)-5-((4-(1-methyl-1H-pyrrolo[3,2-b]pyridin-3-yl)pyrimidin-2-yl)amino)phenyl)acrylamide] | 
~3520 | 1460 | C=CC(=O)Nc1cc(Nc2nccc(-c3cn(C)c4cccnc34)n2)c(OC)cc1N1CC(N(C)C)C1 [Example 14, N-(2-(3-(dimethylamino)azetidin-1-yl)-4-methoxy-5-((4-(1-methyl-1H-pyrrolo[3,2-b]pyridin-3-yl)pyrimidin-2-yl)amino)phenyl)acrylamide] | 
1300 | 39.8 | C=CC(=O)Nc1cc(Nc2nccc(-c3cn(C)c4cccnc34)n2)c(OC)cc1N1CC2(CCCN2C)C1 [Example 17, N-(4-methoxy-5-((4-(1-methyl-1H-pyrrolo[3,2-b]pyridin-3-yl)pyrimidin-2-yl)amino)-2-(5-methyl-2,5-diazaspiro[3.4]oct-2-yl)phenyl)acrylamide] | 
~63400 | 844 | C=CC(=O)Nc1cc(Nc2nccc(-c3noc4ccccc34)n2)c(OC)cc1N1CCC[C@H]1CN(C)C [Example 4, (S)—N-(5-((4-(benzo[d]isoxazol-3-yl)pyrimidin-2-yl)amino)-2-(2-((dimethno)methyl)pyrrolidin-1-yl)-4-methoxyphenyl)acrylamide] | 
3320 | 1560 | C=CC(=O)Nc1cc(Nc2ncnc(-c3cccc4cc[nH]c34)n2)c(OC)cc1N1CC(N(C)C)C1 [Example 35, N—(5-((4-(1H-indol-7-yl)-1,3,5-triazin-2-yl)amino)-2-(3-(dimethylamino)azetidin-1-yl)-4-methoxyphenyl)acylamide] | 
5370 | 77.5 | C=CC(=O)Nc1cc(Nc2nccc(-c3cn(C)c4cccnc34)n2)c(OC)cc1N1CCC(N(C)C)CC1 [Example 15, N-(2-(4-(dimethylamino)piperidin-1-yl)-4-methoxy-5-((4-(1-methyl-1H-pyrrolo[3,2-b]pyridin-3-yl)pyrimidin-2-yl)amino)phenyl)acrylamide] | 
> 1000 | 285 | C=CC(=O)Nc1cc(Nc2nccc(-c3noc4ccccc34)n2)c(OC(F)F)cc1N1CCC[C@H]1CN(C)C [Example 10] | 
15.2 | 21.2 | C=CC(=O)Nc1cc(Nc2ncnc(-n3cnc4ccccc43)n2)c(OC)cc1N(C)CCN(C)C [Example 39, N-(5-((4-(1H-benzo[d]imidazol-1-yl)-1,3,5-triazin-2-yl)amino)-2-((2-(dimethylamino)ethyl)(methyl)amino)-4-methoxyphenyl)acrylamide] | 
